Experimental data published in patent publication US20240239794A1, “PKC-Theta Modulators” (Exscientia AI Limited, priority 2021, published 2024).
Where two headings read alike, the source gives them in different places.

Key:
[1] = test system: IL-2 secretion by human effector memory T cells (TEM); test: Effector memory T cells IL-2 release assay; type: cell-based; conditions: T-cell, human CD4+ TEM cells, CD3/CD28 bead stimulation, 24 h
Procedure: Test compound-mediated inhibition of NFκB signalling in T cells was assessed by quantification of the IL-2 secretion by human effector memory T cells (TEM) upon treatment and stimulation. Human TEM cells were isolated from buffy coats of healthy donors obtained from the French blood bank. First, peripheral blood mononuclear cells (PBMC) were purified from buffy coats diluted 1:1 with DPBS (Gibco, cat #14190-094) by Pancoll (PAN BIOTECH, cat #P04-60500) density gradient centrifugation at 400×g for 20 minutes. TEM cells were further enriched by negative immuno-magnetic cell sorting using a human CD4+ Effector Memory T Cell Isolation Kit (Miltenyi, cat #130-094-125) according to the manufacturer's instructions. Aliquots of 3×10E6 purified TEM cells were kept frozen in Cryo-SFM medium (PromoCell, cat #C-29912) in gas phase nitrogen until used. Cell purity was verified by flow cytometry analysis of 200 000 PFA-fixed cells previously labelled with monoclonal antibodies anti-CD4-PerCP-Cy5.5 (BD Pharmigen, cat #332772), anti-CD8-V500 (BD Biosciences, cat #561617), anti-CD14-Pacific Blue (Biolegend, cat #325616), anti-CD45 RA-FITC (Biolegend, cat #304106) and anti-CCR7-APC (in CD4+ Effector Memory T Cell Isolation Kit, Miltenyi, cat #130-094-125).
TEM cells were resuspended in complete RPMI medium composed of: RPMI 1640 (Gibco, cat #31870-025), 10% heat inactivated fetal bovine serum (Sigma, cat #F7524), 2 mM GlutaMAX (Gibco, cat #35050-038), 1 mM sodium pyruvate 100× (Gibco, cat #11360-039), 1% MEM non-essential amino acids solution (Gibco, cat #11140-035) and 100 U/mL penicillin, 100 µg/mL streptomycin (Sigma-Aldrich, cat #11074440001). 5,000 cells per well were plated onto flat clear bottom 384 well plates (Corning, cat #3770). 5,000 Dynabeads Human T-Activator CD3/CD28 (Gibco, cat #11132D) were added to each well for cell stimulation. Finally, 10 doses of test compound, originally prepared in DMSO by serial semi-log step dilution, were also added to cells in triplicate wells. Final DMSO concentration in wells was 0.1% in a total volume of 100 µL complete medium. Plates were incubated for 24 h at 37° C. in 5% CO2 atmosphere. After incubation, cell suspensions were centrifuged at 400×g and culture supernatants were recovered and stored at −80° C. Cell viability was assessed by flow cytometry after staining the cells with Fixable Viability Dye eFluor 780 (Invitrogen, cat #65-0865-14). IL-2 levels were determined in cell supernatants using an HTRF human IL-2 detection kit (Cisbio, cat #62HIL02PEH). IL-2 data at the different compound doses were fitted to a 4-parameter logistic curve to determine IC50 values, corresponding to the compound concentration leading to 50% reduction of the maximal IL-2 levels observed in each experiment. Viability data were analysed similarly to exclude cytotoxicity as a cause of IL-2 decrease (see Table 1).

[2] = biological target: Recombinant human PKC-delta (His-tagged 345-676) (Homo sapiens (Human), UniProt Q05655); test: PKC-delta inhibition assay (HTRF KinEASE kit), PKC-theta/PKC-delta selectivity; type: biochemical; conditions: ratio; for PKC-theta/PKC-delta selectivity: PKC-theta over PKC-delta, HTRF assays; for PKC-theta/PKC-delta selectivity (binned): binned A to G
Procedure: (§1) PKC-theta and PKC-delta biochemical activities were measured using the PKC-theta HTRF KinEASEkit kit, according to manufacturer's instructions (Cisbio, catalogue number 61ST1PEJ). Briefly, the kinase buffer component of the kit was supplemented with 10 mM MgCl2, 1 mM DTT and 0.1% Tween 20. For the PKC-theta assay, STK substrate and ATP were added to provide a final assay concentration of 525 nM and 6.5 μM, respectively. For the PKC-delta assay, STK substrate and ATP were added to provide a final assay concentration of 243 nM and 5.7 μM, respectively. The streptavidin_XL665 and STK antibody-cryptate detection reagents were mixed according to the manufacturer's instructions. Test compounds were diluted in DMSO in a series of 10 semi-log step doses; 10 nL of each compound dose were dispensed in 384 well plates. Recombinant human PKC-theta (His-tagged 362-706) or PKC-delta (His-tagged 345-676) was diluted into kinase buffer to provide a final assay concentration of 10 ng/ml and added to the test compound for 30 minutes on ice. The reaction was started by addition of the substrate and ATP and incubated at 25° C. for 30 minutes or 20 minutes for the PKC-theta and PKC-delta assays, respectively. The detection reagents were added, and the plate was incubated in the dark for 2 hours. Fluorescence was measured on an Envision 2103 plate reader with optical setup for […] in the HTRF mode. The ratio of acceptor and donor emission signals was calculated for each well. Percent inhibition values were calculated from the HTRF ratios at different doses and fitted to a 4-parameter logistic curve to determine IC50 values (see Table 1).

[3] = biological target: Recombinant human PKC-theta (His-tagged 362-706) (Homo sapiens (Human), UniProt Q04759); test: PKC-theta inhibition assay (HTRF KinEASE kit); type: biochemical; conditions: ATP 6.5 μM
Procedure: as §1

[4] = binned A to G, read-out: PKC-theta IL2 pIC50 (binned) (converted)
[5] = read-out: PKC-theta IL2 pIC50 (converted)
[6] = binned A to H, read-out: PKC-theta HTRF pIC50 (binned) (converted)
[7] = read-out: PKC-theta HTRF pIC50 (converted)

Chain of Recombinant human PKC-delta (His-tagged 345-676) (Q05655 345-676): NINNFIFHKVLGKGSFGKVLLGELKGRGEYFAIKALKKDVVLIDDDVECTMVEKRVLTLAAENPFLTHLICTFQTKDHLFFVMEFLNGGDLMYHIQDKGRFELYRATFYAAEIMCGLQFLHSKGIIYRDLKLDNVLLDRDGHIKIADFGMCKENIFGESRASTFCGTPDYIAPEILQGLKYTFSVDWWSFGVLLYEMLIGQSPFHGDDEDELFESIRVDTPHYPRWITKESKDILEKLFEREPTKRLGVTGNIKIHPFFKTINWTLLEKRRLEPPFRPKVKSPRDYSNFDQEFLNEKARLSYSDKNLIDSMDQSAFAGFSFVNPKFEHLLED
Chain of Recombinant human PKC-theta (His-tagged 362-706) (Q04759 362-706): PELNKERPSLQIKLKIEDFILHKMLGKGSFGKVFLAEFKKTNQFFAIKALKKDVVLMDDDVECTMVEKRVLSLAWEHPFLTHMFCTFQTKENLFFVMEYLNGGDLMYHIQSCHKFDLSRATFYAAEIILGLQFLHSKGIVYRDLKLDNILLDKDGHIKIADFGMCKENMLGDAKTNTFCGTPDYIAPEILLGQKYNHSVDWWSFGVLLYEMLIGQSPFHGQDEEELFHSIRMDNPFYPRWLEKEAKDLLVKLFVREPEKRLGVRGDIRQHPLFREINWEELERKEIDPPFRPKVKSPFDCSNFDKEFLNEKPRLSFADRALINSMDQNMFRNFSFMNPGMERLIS

SMILES	IC50 [1, 4]	IC50 [1, 5]	PKC-theta/PKC-delta selectivity [2]	PKC-theta/PKC-delta selectivity (binned) [2]	PKC-theta HTRF pIC50 [3]	IC50 [3, 6]	IC50 [3, 7]
CC1(C)C(=O)Nc2nccc(-c3nn([C@H]4CCNC4)c4cc(C(F)(F)F)ccc34)c21 [Example 74]	316 to 1000 nM	631 nM	33	B (B means a ratio of between 30 and 50)	6.5	100 to 316 nM	
CC1(C)C(=O)Nc2nccc(-c3nn(C4CCNCC4)c4ccccc34)c21 [Example 9]	31.6 to 100 nM	39.8 nM	15	D (D means a ratio of between 10 and 20)	8.7	1 to 3.16 nM	
CC1(O)C(=O)Nc2nccc(-c3cn([C@H]4CCNC4)c4ccccc34)c21 (stereo partly drawn) [Example 18]	316 to 1000 nM	316 nM	11	D (D means a ratio of between 10 and 20)	7.9	10 to 31.6 nM	
CC1(C)C(=O)Nc2nccc(-c3nn(C[C@]4(C)COCCN4)c4cc(F)ccc34)c21 [Example 110]	> 1000 nM	1000 nM	29	C (C means a ratio of between 20 and 30)	7.6	10 to 31.6 nM	
CO[C@]1(C)C(=O)Nc2nccc(-c3nn(CC4(F)CCNCC4)c4ccccc34)c21 (single isomer, unassigned) [Example 75]	31.6 to 100 nM	50.1 nM	19	D (D means a ratio of between 10 and 20)		1 to 3.16 nM	2 nM
CC1(C)C(=O)Nc2nccc(-c3nn(C[C@@]4(C)COCCN4)c4cc(F)ccc34)c21 [Example 87]	31.6 to 100 nM	50.1 nM	38	B (B means a ratio of between 30 and 50)	9.0	≤ 1 nM	
CN[C@@]1(C)C(=O)Nc2nccc(-c3nn(C4(CC#N)CCC4)c4ccccc34)c21 (single isomer, unassigned) [Example 94]	100 to 316 nM	126 nM	23	C (C means a ratio of between 20 and 30)		3.16 to 10 nM	3.98 nM
CC[C@@]1(C)C(=O)Nc2nccc(-c3nn([C@H]4CCNC[C@H]4F)c4ccccc34)c21 (single isomer, unassigned) [Example 107]	316 to 1000 nM	631 nM	23	C (C means a ratio of between 20 and 30)		10 to 31.6 nM	20 nM
C[C@]1(O)C(=O)Nc2nccc(-c3nn(C4(CC#N)CCC4)c4cc(C(F)(F)F)ccc34)c21 (single isomer, unassigned) [Example 64]	31.6 to 100 nM	79.4 nM	28	C (C means a ratio of between 20 and 30)		1 to 3.16 nM	2.51 nM
CO[C@@]1(C)C(=O)Nc2nccc(-c3nn(CC4(F)CCNCC4)c4ccccc34)c21 (single isomer, unassigned) [Example 78]	31.6 to 100 nM	50.1 nM	10	D (D means a ratio of between 10 and 20)		≤ 1 nM	1 nM
CN1CCOCC1(C)Cn1nc(-c2ccnc3c2C(C)(C)C(=O)N3)c2ccccc21 (stereo not drawn) [Example 63]	> 1000 nM	1260 nM	17	D (D means a ratio of between 10 and 20)	7.5	10 to 31.6 nM	
CC[C@@]1(OC)C(=O)Nc2nccc(-c3nn(CC4(F)CCNCC4)c4ccccc34)c21 (single isomer, unassigned) [Example 88]	100 to 316 nM	200 nM	14	D (D means a ratio of between 10 and 20)		3.16 to 10 nM	3.98 nM
